Assay results reported in ChEMBL document CHEMBL1124604, “Synthesis and benzodiazepine receptor affinities of rigid analogues of 3-carboxy-beta-carbolines: demonstration that the benzodiazepine receptor recognizes preferentially the s-cis conformation of the 3-carboxy group” (J Med Chem, 1989).

experiment: In vitro inhibition of [3H]flunitrazepam binding to GABA-A receptor of rat cerebral cortex membranes; format: cell membranes, Membrane

Structure (SMILES) | IC50
CCc1c(C(=O)OC)[nH]cc2nc3ccccc3c1-2 | 0.027 µM
O=C1NCCc2c1[nH]cc1nc3ccccc3c2-1 | 0.15 µM
COC(=O)c1cc2c(cn1)[nH]c1ccccc12 [BETA-CCM] | 0.0035 µM
CCOC(=O)c1cc2c(cn1)[nH]c1ccccc12 | 0.007 µM

Next, values leading:

IC50 | Structure (SMILES)
0.042 µM | O=C1OCCc2c1[nH]cc1nc3ccccc3c2-1
0.197 µM | CNC(=O)c1cc2c(cn1)[nH]c1ccccc12
> 10 µM | CCc1c(C(=O)NC)[nH]cc2nc3ccccc3c1-2
